Several values for one entry are separate records, joined by “and”; a condition that tells them apart may be missing. Identical values can stand only once. Like-named read-outs stand apart in the source and are kept apart here.
Tests used:
[1] = test system: D. immitis Mf, Georgia-2 isolate; assay: Cell attachment assay (canine PMN or PBMC attachment to Mf), Georgia-2 isolate; format: cell-based, Dirofilaria immitis
[2] = test system: D. immitis Mf, Missouri isolate; assay: Cell attachment assay (canine PMN or PBMC attachment to Mf), Missouri isolate; format: cell-based, Dirofilaria immitis

Row | SMILES | Percentage (±SEM) of Mf with cells attached [1] | lowest drug concentration at which a statistically significant increase (p = <0.05) in cell attachment was observed compared to the no-drug control [1] [nM] | Percentage (±SEM) of Mf with cells attached [2] | lowest drug concentration at which a statistically significant increase (p = <0.05) in cell attachment was observed compared to the no-drug control [2] [nM] | Percentage (±SEM) of Mf with cells attached ([1]; PBMC, 1 μM drug, Georgia-2 Mf) [%] | lowest drug concentration at which a statistically significant increase (p = <0.05) in cell attachment was observed compared to the no-drug control ([1]; PBMC, 40 h, Georgia-2 Mf, 2-way ANOVA) [nM] | Percentage (±SEM) of Mf with cells attached ([1]; PMN, 1 μM drug, Georgia-2 Mf) [%] | lowest drug concentration at which a statistically significant increase (p = <0.05) in cell attachment was observed compared to the no-drug control ([1]; PMN, 24 h, Georgia-2 Mf, 2-way ANOVA) [nM] | Percentage (±SEM) of Mf with cells attached ([2]; PBMC, 1 μM drug, Missouri Mf) [%] | lowest drug concentration at which a statistically significant increase (p = <0.05) in cell attachment was observed compared to the no-drug control ([2]; PBMC, 40 h, Missouri Mf, 2-way ANOVA) [nM] | Percentage (±SEM) of Mf with cells attached ([2]; PMN, 1 μM drug, Missouri Mf) [%] | lowest drug concentration at which a statistically significant increase (p = <0.05) in cell attachment was observed compared to the no-drug control ([2]; PMN, 24 h, Missouri Mf, 2-way ANOVA) [nM]
1 | CC[C@H](C)[C@H]1O[C@]2(CC[C@@H]1C)C[C@@H]1C[C@@H](C/C=C(\C)[C@@H](O[C@H]3C[C@H](OC)[C@@H](O[C@H]4C[C@H](OC)[C@@H](O)[C@H](C)O4)[C@H](C)O3)[C@@H](C)/C=C/C=C3\CO[C@@H]4[C@H](O)C(C)=C[C@@H](C(=O)O1)[C@]34O)O2 [IVM, ivermectin] | 41 ± 6% and 71 ± 5% | 1 | 48 ± 6% and 60 ± 3% | 3 |  |  |  |  |  |  |  | 
2 | CO/N=C1\C[C@]2(C[C@@H]3C[C@@H](C/C=C(\C)C[C@@H](C)/C=C/C=C4\CO[C@@H]5[C@H](O)C(C)=C[C@@H](C(=O)O3)[C@]45O)O2)O[C@H](/C(C)=C/C(C)C)[C@H]1C [MOX, moxidectin] |  |  |  |  | 63 ± 5 | 1 | 54 ± 6 | 3 | 63 ± 5 | 1 | 65 ± 5 | 3

From patent publication US20220133688A1, “MACROCYCLIC LACTONE ANTHELMINTICS AGAINST NEMATODES” (Bayer Animal Health GmbH, priority 2019, published 2022)
